ChEMBL document CHEMBL1909294, “Translating clinical findings into knowledge in drug safety evaluation--drug induced liver injury prediction system (DILIps)” (PLoS Comput Biol, 2011)

Columns and labels:
Hepatotoxicity [1] = system: Hepatotoxicity;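 on HepSE Combined Scores: combined hepatic side effect score as listed in the training data of the Drug Induced Liver Injury Prediction System (DILIps)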;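 on HepSE bilirubinemia: bilirubinemia hepatic side effect score drawn from the DILIps training data, a prediction system for drug-induced liver injury; call rule not given here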;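 on HepSE cholelithiasis: hepatic side effect score for cholelithiasis, drawn from the DILIps training data for predicting drug-induced liver injury; call rule not given here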;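 on HepSE cirrhosis: cirrhosis hepatic side effect score taken from the DILIps (drug-induced liver injury prediction) training set; call rule not given here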;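 on HepSE jaundice: Jaundice-related hepatic side-effect score drawn from the training data of the DILIps (drug-induced liver injury prediction system); call rule not given here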;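 on HepSE liver function tests abnormal: hepatic side effect score taken from the DILIps (drug-induced liver injury prediction system) training data, here covering abnormal liver function test findings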
Hepatotoxicity [2] = system: Hepatotoxicity; remark: listed apart in the source;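 on HepSE Combined Scores: combined hepatic side effect score as listed in the training data of the Drug Induced Liver Injury Prediction System (DILIps)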;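 on HepSE bilirubinemia: bilirubinemia hepatic side effect score drawn from the DILIps training data, a prediction system for drug-induced liver injury; call rule not given here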;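 on HepSE cholelithiasis: hepatic side effect score for cholelithiasis, drawn from the DILIps training data for predicting drug-induced liver injury; call rule not given here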;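 on HepSE cirrhosis: cirrhosis hepatic side effect score taken from the DILIps (drug-induced liver injury prediction) training set; call rule not given here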;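 on HepSE jaundice: Jaundice-related hepatic side-effect score drawn from the training data of the DILIps (drug-induced liver injury prediction system); call rule not given here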;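 on HepSE liver function tests abnormal: hepatic side effect score taken from the DILIps (drug-induced liver injury prediction system) training data, here covering abnormal liver function test findings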
Hepatotoxicity [3] = system: Hepatotoxicity; remark: listed apart in the source;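 on HepSE Combined Scores: combined hepatic side effect score as listed in the training data of the Drug Induced Liver Injury Prediction System (DILIps)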;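 on HepSE bilirubinemia: bilirubinemia hepatic side effect score drawn from the DILIps training data, a prediction system for drug-induced liver injury; call rule not given here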;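 on HepSE cholelithiasis: hepatic side effect score for cholelithiasis, drawn from the DILIps training data for predicting drug-induced liver injury; call rule not given here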;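 on HepSE cirrhosis: cirrhosis hepatic side effect score taken from the DILIps (drug-induced liver injury prediction) training set; call rule not given here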;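 on HepSE jaundice: Jaundice-related hepatic side-effect score drawn from the training data of the DILIps (drug-induced liver injury prediction system); call rule not given here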;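 on HepSE liver function tests abnormal: hepatic side effect score taken from the DILIps (drug-induced liver injury prediction system) training data, here covering abnormal liver function test findings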
Hepatotoxicity [4] = system: Hepatotoxicity; remark: listed apart in the source;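 on HepSE Combined Scores: combined hepatic side effect score as listed in the training data of the Drug Induced Liver Injury Prediction System (DILIps)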;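 on HepSE bilirubinemia: bilirubinemia hepatic side effect score drawn from the DILIps training data, a prediction system for drug-induced liver injury; call rule not given here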;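 on HepSE cholelithiasis: hepatic side effect score for cholelithiasis, drawn from the DILIps training data for predicting drug-induced liver injury; call rule not given here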;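 on HepSE jaundice: Jaundice-related hepatic side-effect score drawn from the training data of the DILIps (drug-induced liver injury prediction system); call rule not given here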;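 on HepSE liver function tests abnormal: hepatic side effect score taken from the DILIps (drug-induced liver injury prediction system) training data, here covering abnormal liver function test findings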
Hepatotoxicity [5] = system: Hepatotoxicity; remark: listed apart in the source
Hepatotoxicity [6] = system: Hepatotoxicity; remark: listed apart in the source
Hepatotoxicity [7] = system: Hepatotoxicity; remark: listed apart in the source
Hepatotoxicity [8] = system: Hepatotoxicity; remark: listed apart in the source
Hepatotoxicity [9] = system: Hepatotoxicity; remark: listed apart in the source
Hepatotoxicity [10] = system: Hepatotoxicity; remark: listed apart in the source
Hepatotoxicity [11] = system: Hepatotoxicity; remark: listed apart in the source
Hepatotoxicity [12] = system: Hepatotoxicity; remark: listed apart in the source
Hepatotoxicity [13] = system: Hepatotoxicity; remark: listed apart in the source
Hepatotoxicity [14] = system: Hepatotoxicity; remark: listed apart in the source

Structure (SMILES)	HepSE_cholelithiasis (Hepatotoxicity [1])	HepSE_bilirubinemia (Hepatotoxicity [2])	HepSE_liver function tests abnormal (Hepatotoxicity [3])	HepSE_hepatitis (Hepatotoxicity [4])	HepSE_jaundice (Hepatotoxicity [5])	HepSE_Combined Scores (Hepatotoxicity [6])	HepSE_cirrhosis (Hepatotoxicity [7])	HepSE_hepatomegaly (Hepatotoxicity [8])	HepSE_hepatic failure (Hepatotoxicity [9])	HepSE_hepatic necrosis (Hepatotoxicity [10])	HepSE_liver fatty (Hepatotoxicity [11])	HepSE_cholecystitis (Hepatotoxicity [12])	HepSE_elevated liver function tests (Hepatotoxicity [13])	HepSE_liver disease (Hepatotoxicity [14])	other results
CCOC(=O)[C@H](CCc1ccccc1)N[C@H]1CCCN2CCC[C@@H](C(=O)O)N2C1=O [CILAZAPRIL]	0	0	0	1	0	1	0	0	0	0	0	0	0	0	–
CN/C(=N/CCSCc1nc[nH]c1C)NC#N [CIMETIDINE]	–	–	–	–	–	–	–	–	–	–	–	–	–	–	HepSE_cholelithiasis (Hepatotoxicity [1]; Liver): 0; HepSE_bilirubinemia (Hepatotoxicity [2]; Liver): 0; HepSE_liver function tests abnormal (Hepatotoxicity [3]; Liver): 0; HepSE_hepatitis (Hepatotoxicity [4]; Liver): 0; HepSE_jaundice (Hepatotoxicity [5]; Liver): 0; HepSE_Combined Scores (Hepatotoxicity [6]; Liver): 0; HepSE_cirrhosis (Hepatotoxicity [7]; Liver): 0; HepSE_hepatomegaly (Hepatotoxicity [8]; Liver): 0; HepSE_hepatic failure (Hepatotoxicity [9]; Liver): 0; HepSE_hepatic necrosis (Hepatotoxicity [10]; Liver): 0; HepSE_liver fatty (Hepatotoxicity [11]; Liver): 0; HepSE_cholecystitis (Hepatotoxicity [12]; Liver): 0; HepSE_elevated liver function tests (Hepatotoxicity [13]; Liver): 0; HepSE_liver disease (Hepatotoxicity [14]; Liver): 0
CCn1nc(C(=O)O)c(=O)c2cc3c(cc21)OCO3 [CINOXACIN]	0	0	0	0	0	0	0	0	0	0	0	0	0	0	–
COc1cc(N)c(Cl)cc1C(=O)NC1CCN(CCCOc2ccc(F)cc2)CC1OC (configuration not stated) [CISAPRIDE]	0	0	0	1	0	1	0	0	0	0	0	0	0	0	–
CN(C)CCCC1(c2ccc(F)cc2)OCc2cc(C#N)ccc21 (configuration not stated) [CITALOPRAM]	1	1	0	1	1	7	0	0	1	1	0	1	0	0	–
CC[C@H]1OC(=O)[C@H](C)[C@@H](O[C@H]2C[C@@](C)(OC)[C@@H](O)[C@H](C)O2)[C@H](C)[C@@H](O[C@@H]2O[C@H](C)C[C@H](N(C)C)[C@H]2O)[C@](C)(OC)C[C@@H](C)C(=O)[C@H](C)[C@@H](O)[C@]1(C)O [CLARITHROMYCIN]	0	0	0	1	1	4	0	1	1	0	0	0	0	0	–
CN1CCC[C@@H]1CCO[C@](C)(c1ccccc1)c1ccc(Cl)cc1 [CLEMASTINE]	0	0	–	0	0	0	0	0	0	0	0	0	–	0	HepSE_liver function tests abnormal (Hepatotoxicity [3]; Liver): 0; HepSE_elevated liver function tests (Hepatotoxicity [13]; Liver): 0
CCC[C@@H]1C[C@@H](C(=O)N[C@@H]([C@H]2O[C@H](SC)[C@H](O)[C@@H](O)[C@H]2O)[C@H](C)Cl)N(C)C1 [CLINDAMYCIN]	0	0	0	0	1	1	0	0	0	0	0	0	0	0	–
C[C@H]1C[C@H]2[C@@H]3CCC4=CC(=O)C=C[C@]4(C)[C@@]3(F)[C@@H](O)C[C@]2(C)[C@@]1(O)C(=O)CCl [CLOBETASOL]	0	0	0	0	0	0	0	0	0	0	0	0	0	0	–
O=P(O)(O)C(Cl)(Cl)P(=O)(O)O [CLODRONIC ACID]	0	0	0	0	0	1	0	0	0	0	0	0	0	1	–
Nc1nc(Cl)nc2c1ncn2[C@@H]1O[C@H](CO)[C@@H](O)[C@@H]1F [CLOFARABINE]	0	1	0	0	1	3	0	1	0	0	0	0	0	0	–
CC(C)/N=c1\cc2n(-c3ccc(Cl)cc3)c3ccccc3nc-2cc1Nc1ccc(Cl)cc1 [CLOFAZIMINE]	0	0	0	1	1	3	0	1	0	0	0	0	0	0	–
CN(C)CCCN1c2ccccc2CCc2ccc(Cl)cc21 [CLOMIPRAMINE]	0	0	0	1	0	1	0	0	0	0	0	0	0	0	–
